# Assay results taken from patent US10334851B2, “Herbicidal isoxazolo[5,4-B]pyridines” (BASF SE, priority 2010, dated 2019).
# Key:
# Assay type in all cases: in vivo
# Abutilon theophrasti = assay: Greenhouse post-emergence treatment of Abutilon theophrasti (velvetleaf); settings: scale 0 (no damage) to 100 (complete destruction); for pest or weed control at 3000 g/ha: Abutilon theophrasti
# Description: (§1) The seeds of the test plants were sown separately for each species. For the post-emergence treatment, the test plants were first grown to a height of 3 to 15 cm, depending on the plant habit, and only then treated with the active ingredients which had been suspended or emulsified in water. For this purpose, the test plants were either sown directly and grown in the same containers, or they were first grown separately as seedlings and transplanted into the test containers a few days prior to treatment. Depending on the species, the plants were kept at 10-25° C. or 20-35° C. The test period extended over 2 to 4 weeks. During this time, the plants were tended, and their response to the individual treatments was evaluated. Evaluation was carried out using a scale from 0 to 100. 100 means no emergence of the plants, or complete destruction of at least the aerial moieties, and 0 means no damage, or normal course of growth. A good herbicidal activity is given at values of at least 80 and a very good herbicidal activity is given at values of at least 90. The plants used in the greenhouse experiments belonged to the following species: [table]
# Chenopodium album = assay: Greenhouse post-emergence treatment of Chenopodium album (fat-hen); settings: for damage / pest or weed control at 1000 g/ha: application rate 1.0 kg/ha; for damage: scale 0 to 100
# Description: as §1
# [1] = test system: Amaranthus retroflexus L.; assay: Greenhouse post-emergence treatment of Amaranthus retroflexus L. (pigweed); settings: for damage / pest or weed control at 1000 g/ha: application rate 1.0 kg/ha; for damage: scale 0 to 100
# Description: as §1
# [2] = scale 0 to 100, read-out: damage
# [3] = application rate 0.927 kg/ha, scale 0 to 100, read-out: damage
smiles,measurement,setting,value
CCOCCOC(=O)c1cc(C2CC2)nc2onc(C)c12 [I.1.69],damage,Abutilon theophrasti; application rate 3.0 kg/ha,100%
O=C(O)c1cc(C2CC2)nc2onc(-c3cccc(C(F)(F)F)c3)c12 [I.2.21],damage,Abutilon theophrasti; application rate 3.0 kg/ha,100%
COC(=O)c1cc(C2CC2)nc2onc(CCc3ccccc3)c12 [I.4.5],damage,Abutilon theophrasti; application rate 3.0 kg/ha,85%
O=C(O)c1cc(C2(F)CC2)nc2onc(-c3ccc(OC(F)F)cc3)c12 [I.7.65],damage,Chenopodium album,100%
same,damage,[1],100%
O=C(O)c1cc(C2CC2)nc2onc(CC3CCCC3)c12 [I.2.27],pest or weed control at 3000 g/ha,Abutilon theophrasti; application rate 3.0 kg/ha,100%
CSC(=O)c1cc(C2CC2)nc2onc(-c3ccc(F)cc3)c12 [I.4.47],damage,[1],95%
CSC(=O)c1cc(C2CC2)nc2onc(CC(C)(C)C)c12 [I.4.45],damage,[1],100%
COc1cccc(-c2noc3nc(C4CC4)cc(C(=O)O)c23)c1 [I.2.22],damage,Abutilon theophrasti; application rate 3.0 kg/ha,100%
CCCCCc1noc2nc(C3CC3)cc(C(=O)OC)c12 [I.4.25],damage,Abutilon theophrasti; application rate 3.0 kg/ha,100%
Cc1cc(C(=O)O)c2c(C3CC3)noc2n1 [I.7.13],pest or weed control at 3000 g/ha,Abutilon theophrasti; application rate 3.0 kg/ha,100%
O=C(O)c1cc(C2CC2)nc2onc(-c3ccc(C(F)(F)F)cc3)c12 [I.2.18],damage,Abutilon theophrasti; application rate 3.0 kg/ha,100%
O=C(O)c1cc(C2CC2)nc2onc(CCC3CCCCC3)c12 [I.2.30],pest or weed control at 3000 g/ha,Abutilon theophrasti; application rate 3.0 kg/ha,100%
CC(C)(C)c1noc2nc(C3(F)CC3)cc(C(=O)O)c12 [I.7.64],pest or weed control at 1000 g/ha,Chenopodium album; [2],100%
same,pest or weed control at 1000 g/ha,[1]; [2],100%
O=C(O)c1cc(C2CC2(F)F)nc2onc(C3CC3)c12 (stereo not drawn) [I.7.55],pest or weed control at 1000 g/ha,Chenopodium album; [2],100%
same,pest or weed control at 1000 g/ha,[1]; [2],100%
CCCOc1noc2nc(C3CC3)cc(C(=O)O)c12 [I.2.55],damage,Chenopodium album,100%
same,damage,[1],100%
O=C(O)c1cc(C2CC2)nc2onc(-c3ccccc3F)c12 [I.2.50],damage,Chenopodium album,100%
same,damage,[1],100%
CCCc1noc2nc(C3(F)CC3)cc(C(=O)O)c12 [I.7.63],damage,Chenopodium album,100%
same,damage,[1],100%
O=C(O)c1cc(C2CC2)nc2onc(C3CCCCC3)c12 [I.2.26],pest or weed control at 3000 g/ha,Abutilon theophrasti; application rate 3.0 kg/ha,100%
CC(C)Oc1noc2nc(C3CC3)cc(C(=O)O)c12 [I.2.57],pest or weed control at 1000 g/ha,Chenopodium album; [2],100%
same,pest or weed control at 1000 g/ha,[1]; [2],100%
Cc1cc(C(=O)O)c2c(-c3ccccc3)noc2n1 [I.7.31],damage,Abutilon theophrasti; application rate 3.0 kg/ha,98%
CCc1noc2nc(C3(F)CC3)cc(C(=O)O)c12 [I.7.90],pest or weed control at 1000 g/ha,Chenopodium album; [2],100%
same,pest or weed control at 1000 g/ha,[1]; [2],100%
CCOc1ccc(-c2noc3nc(C4CC4)cc(C(=O)O)c23)cc1 [I.2.62],damage,Chenopodium album,100%
same,damage,[1],100%
COC(=O)c1cc(C2CC2)nc2onc(CCC3CCCCC3)c12 [I.4.27],pest or weed control at 3000 g/ha,Abutilon theophrasti; application rate 3.0 kg/ha,100%
CC(C)CCc1noc2nc(C3CC3)cc(C(=O)O)c12 [I.2.39],damage,Abutilon theophrasti; application rate 3.0 kg/ha,100%
Cc1noc2nc(C3CC3)cc(C(=O)OCC(F)F)c12 [I.1.65],damage,Chenopodium album,100%
same,damage,[1],100%
CCCCSC(=O)c1cc(C2CC2)nc2onc(C)c12 [I.1.81],damage,Chenopodium album,98%
same,damage,[1],98%
COC(=O)c1cc(C2CC2)nc2onc(C3CC3)c12 [I.8.4],pest or weed control at 1000 g/ha,Chenopodium album; [2],100%
same,pest or weed control at 1000 g/ha,[1]; [2],100%
CSC(=O)c1cc(C2CC2)nc2onc(C)c12 [I.1.82],damage,Chenopodium album,98%
same,damage,[1],98%
CCOc1noc2nc(C3CC3)cc(C(=O)O)c12 [I.2.54],pest or weed control at 1000 g/ha,Chenopodium album; [2],100%
same,pest or weed control at 1000 g/ha,[1]; [2],100%
CCc1cc(C(=O)O)c2c(C)noc2n1 [I.5.4],pest or weed control at 3000 g/ha,Abutilon theophrasti; application rate 3.0 kg/ha,85%
CSC(=O)c1cc(C2CC2)nc2onc(C3CC3)c12 [I.4.60],pest or weed control at 927 g/ha,Chenopodium album; [3],100%
same,pest or weed control at 927 g/ha,[1]; [3],100%
CCc1ccc(-c2noc3nc(C4CC4)cc(C(=O)O)c23)cc1 [I.2.61],damage,Chenopodium album,100%
same,damage,[1],100%
CC#CCOC(=O)c1cc(C2CC2)nc2onc(C)c12 [I.1.68],damage,Abutilon theophrasti; application rate 3.0 kg/ha,100%
CCCCOc1noc2nc(C3CC3)cc(C(=O)O)c12 [I.2.56],damage,Chenopodium album,100%
same,damage,[1],100%
CC(C)(C)Oc1noc2nc(C3CC3)cc(C(=O)O)c12 [I.2.58],pest or weed control at 1000 g/ha,Chenopodium album; [2],100%
same,pest or weed control at 1000 g/ha,[1]; [2],100%
O=C(O)c1cc(C2CC2)nc2onc(-c3ccc(Cl)cc3)c12 [I.2.17],damage,Abutilon theophrasti; application rate 3.0 kg/ha,100%
Cc1noc2nc3c(c(C(=O)O)c12)CCC3 [I.8.1],pest or weed control at 3000 g/ha,Abutilon theophrasti; application rate 3.0 kg/ha,100%
O=C(O)c1cc(C2CC2(F)F)nc2onc(-c3ccccc3)c12 (stereo not drawn) [I.7.56],damage,Chenopodium album,90%
same,damage,[1],80%
COc1ccc(-c2noc3nc(C4CC4(F)F)cc(C(=O)O)c23)cc1 (stereo not drawn) [I.7.57],damage,Chenopodium album,98%
same,damage,[1],80%
CCCCOCCOCCOC(=O)c1cc(C2CC2)nc2onc(C)c12 [I.1.70],damage,Abutilon theophrasti; application rate 3.0 kg/ha,100%
COc1ccc(CCc2noc3nc(C4CC4)cc(C(=O)O)c23)cc1 [I.2.42],damage,Abutilon theophrasti; application rate 3.0 kg/ha,100%
C=CCOC(=O)c1cc(C2CC2)nc2onc(C)c12 [I.1.62],damage,Abutilon theophrasti; application rate 2.0 kg/ha,100%
O=C(O)c1cc(C2CC2)nc2onc(CCCc3cccs3)c12 [I.2.40],pest or weed control at 3000 g/ha,Abutilon theophrasti; application rate 3.0 kg/ha,100%
O=C(O)c1cc(C2CC2)nc2onc(-c3cc(F)cc(F)c3)c12 [I.2.44],damage,Abutilon theophrasti; application rate 3.0 kg/ha,100%
Cc1cc(C(=O)O)c2c(C(C)C)noc2n1 [I.7.10],pest or weed control at 3000 g/ha,Abutilon theophrasti; application rate 3.0 kg/ha,100%
CCCCOc1ccc(-c2noc3nc(C4CC4)cc(C(=O)O)c23)cc1 [I.2.63],damage,Chenopodium album,100%
same,damage,[1],100%
CC(C)(C)c1ccc(-c2noc3nc(C4CC4)cc(C(=O)O)c23)cc1 [I.2.71],damage,Chenopodium album,100%
same,damage,[1],100%
O=C(O)c1cc(C2CC2)nc2onc(-c3ccc(I)cc3)c12 [I.2.43],damage,Abutilon theophrasti; application rate 3.0 kg/ha,100%
O=C(O)c1cc(C2CC2)nc2onc(-c3ccc(F)cc3)c12 [I.2.51],damage,Chenopodium album,100%
same,damage,[1],100%
O=C(O)c1cc(C2CC2)nc2onc(-c3cccc(Cl)c3)c12 [I.2.24],damage,Abutilon theophrasti; application rate 3.0 kg/ha,100%
COC(=O)c1cc(C2CC2)nc2onc(C3CCC3)c12 [I.4.4],pest or weed control at 3000 g/ha,Abutilon theophrasti; application rate 3.0 kg/ha,100%
COc1ccc(-c2noc3nc(C4(F)CC4)cc(C(=O)O)c23)cc1 [I.7.61],damage,Chenopodium album,100%
same,damage,[1],100%
C=CCSC(=O)c1cc(C2CC2)nc2onc(C)c12 [I.1.80],damage,Chenopodium album,98%
same,damage,[1],98%
Cc1ccccc1-c1noc2nc(C3CC3)cc(C(=O)O)c12 [I.2.52],damage,Chenopodium album,98%
same,damage,[1],100%
O=C(O)c1cc(C2(F)CC2)nc2onc(-c3ccccc3)c12 [I.7.62],damage,Chenopodium album,100%
same,damage,[1],100%
COC(=O)c1cc(C2(F)CC2)nc2onc(C3CC3)c12 [I.7.53],pest or weed control at 1000 g/ha,Chenopodium album; [2],90%
same,pest or weed control at 1000 g/ha,[1]; [2],100%
O=C(O)c1cc(C2CC2)nc2onc(C3(F)CC3)c12 [I.2.46],pest or weed control at 1000 g/ha,Chenopodium album; [2],98%
same,pest or weed control at 1000 g/ha,[1]; [2],98%
O=C(O)c1cc(C2CC2)nc2onc(CCCc3ccccc3)c12 [I.2.37],damage,Abutilon theophrasti; application rate 3.0 kg/ha,90%
Cc1cc(C(=O)O)c2c(-c3ccco3)noc2n1 [I.7.38],pest or weed control at 3000 g/ha,Abutilon theophrasti; application rate 3.0 kg/ha,100%
COCc1noc2nc(C3CC3)cc(C(=O)O)c12 [I.2.38],damage,Abutilon theophrasti; application rate 3.0 kg/ha,100%
C=COCCOC(=O)c1cc(C2CC2)nc2onc(C)c12 [I.1.75],damage,Abutilon theophrasti; application rate 3.0 kg/ha,100%
O=C(O)c1cc(C2CC2)nc2onc(-c3cccc(F)c3)c12 [I.2.31],damage,Abutilon theophrasti; application rate 3.0 kg/ha,100%
Cc1cc(C(=O)O)c2c(CC(C)(C)C)noc2n1 [I.7.41],damage,Abutilon theophrasti; application rate 3.0 kg/ha,100%
CCCc1noc2nc(C)cc(C(=O)O)c12 [I.7.39],damage,Abutilon theophrasti; application rate 3.0 kg/ha,100%
